Like-named read-outs stand apart in the source and are kept apart here.
Test system: THP-1 (AML) cells
Experiment: LSD1 CD11b cellular assay (flow cytometry)
Assay type: cell-based
Conditions: Homo sapiens, THP-1, 96 h
[1] = CD11b expressing cells, 4 days, read-out: THP-1 IC50

| Compound | IC50 [1] [µM] | IC50 (read-out: THP-1 IC50 (μM)) [µM] |
| --- | --- | --- |
| COc1ccc(-c2c(-c3ccc(C#N)c(F)c3)nc(N(C)C[C@@H]3CCNC3)n(C)c2=O)cc1 (stereo in doubt) [Example 56, 2-fluoro-4-[5-(4-methoxy-phenyl)-1-methyl-2-(methyl-pyrrolidin-3-ylmethyl-amino)-6-oxo-1,6-dihydro-pyrimidin-4-yl]-benzonitrile] | < 0.1 |  |
| COc1ccc(-c2c(-c3ccc(C#N)cc3)nc(N3CCC(N)CC3)n(C)c2=O)cc1 [Example 2, 4-[2-(4-amino-piperidin-1-yl)-5-(4-methoxy-phenyl)-1-methyl-6-oxo-1,6-dihydro-pyrimidin-4-yl]-benzonitrile] |  | < 0.1 |
| CCc1ccc(-c2c(-c3ccc(C#N)cc3)nc(N3CCC(N)CC3)n(C)c2=O)cn1 [Example 10, 4-[2-(4-amino-piperidin-1-yl)-5-(6-ethyl-pyridin-3-yl)-1-methyl-6-oxo-1,6-dihydro-pyrimidin-4-yl]-benzonitrile] | 0.1 to 1 |  |
| CNC1CCN(c2nc(-c3ccc(C#N)c(F)c3)c(-c3ccc(OC)cc3)c(=O)n2C)CC1 [Example 11, 2-fluoro-4-[5-(4-methoxy-phenyl)-1-methyl-2-(4-methylamino-piperidin-1-yl)-6-oxo-1,6-dihydro-pyrimidin-4-yl]-benzonitrile] | < 0.1 |  |
| CNC1CCN(c2nc(-c3ccc(C#N)c(F)c3)c(-c3ccc(OC)c(F)c3)c(=O)n2C)CC1 [Example 12, 2-fluoro-4-[5-(3-fluoro-4-methoxy-phenyl)-1-methyl-2-(4-methylamino-piperidin-1-yl)-6-oxo-1,6-dihydro-pyrimidin-4-yl]-benzonitrile] | < 0.1 |  |
| Cn1c(N2CCC(N)CC2)nc(-c2ccc(C#N)c(F)c2)c(C#CC2CCCC2)c1=O [Example 14, 4-[2-(4-amino-piperidin-1-yl)-5-cyclopentylethynyl-1-methyl-6-oxo-1,6-dihydro-pyrimidin-4-yl]-2-fluoro-benzonitrile] | < 0.1 |  |
| COc1ccc(-c2c(-c3ccc(C#N)c(F)c3)nc(N3CCC(N)CC3)n(CC(=O)O)c2=O)cc1 [Example 15, [2-(4-amino-piperidin-1-yl)-4-(4-cyano-3-fluoro-phenyl)-5-(4-methoxy-phenyl)-6-oxo-6H-pyrimidin-1-yl]-acetic acid] | 1 to 10 |  |
| COc1ccc(-c2c(-c3ccc(C#N)c(F)c3)nc(N3CCC(N)CC3)n(CC(N)=O)c2=O)cc1 [Example 16, 2-[2-(4-amino-piperidin-1-yl)-4-(4-cyano-3-fluoro-phenyl)-5-(4-methoxy-phenyl)-6-oxo-6H-pyrimidin-1-yl]-acetamide] | < 0.1 |  |
| Cn1c(N2CCC(N)CC2)nc(-c2ccc(C#N)c(F)c2)c(-c2ccc3occc3c2)c1=O [Example 18, 4-[2-(4-amino-piperidin-1-yl)-5-benzofuran-5-yl-1-methyl-6-oxo-1,6-dihydro-pyrimidin-4-yl]-2-fluoro-benzonitrile] | < 0.1 |  |
| Cn1c(N2CCC(N)CC2)nc(-c2ccc(C#N)c(F)c2)c(Cl)c1=O [Example 20, 4-[2-(4-aminopiperidin-1-yl)-5-chloro-1-methyl-6-oxopyrimidin-4-yl]-2-fluorobenzonitrile] | 0.1 to 1 |  |
| COc1ccc(-c2c(-c3ccc(C#N)c(F)c3)nc(N3CCC4(CCNC4)CC3)n(C)c2=O)cc1F [Example 22, 4-[2-(2,8-diaza-spiro[4.5]dec-8-yl)-5-(3-fluoro-4-methoxy-phenyl)-1-methyl-6-oxo-1,6-dihydro-pyrimidin-4-yl]-2-fluoro-benzonitrile] | < 0.1 |  |
| Cn1c(N2CCC(N)CC2)nc(-c2ccc(C#N)c(F)c2)c(-c2ccc(C(F)(F)F)nc2)c1=O [Example 23, 4-{2-(4-aminopiperidyl)-1-methyl-6-oxo-5-[6-(trifluoromethyl) (3-pyridyl)]hydropyrimidin-4-yl}-2-fluorobenzenecarbonitrile] | < 0.1 |  |
| COc1ccc(-c2c(-c3ccc(C#N)c(F)c3)nc(N3CCC[C@@H](N)C3)n(C)c2=O)cc1F [Example 25, 4-[2-((3R)-3-aminopiperidyl)-5-(3-fluoro-4-methoxyphenyl)-1-methyl-6-oxohydropyrimidin-4-yl]-2-fluorobenzenecarbonitrile] | < 0.1 |  |
| COc1ncc(-c2c(-c3ccc(C#N)c(F)c3)nc(N3CCC(N)CC3)n(C)c2=O)cc1F [Example 26, 4-[2-(4-aminopiperidyl)-5-(5-fluoro-6-methoxy(3-5,6-dihydropyridyl))-1-methyl-6-oxohydropyrimidin-4-yl]-2-fluorobenzenecarbonitrile] | < 0.1 |  |
| COc1ccc(-c2c(-c3ccc(C#N)c(F)c3)nc(N3CC[C@@H](N)C3)n(C)c2=O)cc1F [Example 27, 4-[2-((3R)-3-aminopyrrolidinyl)-5-(3-fluoro-4-methoxyphenyl)-1-methyl-6-oxohydropyrimidin-4-yl]-2-fluorobenzenecarbonitrile] | < 0.1 |  |
| COc1ccc(-c2c(-c3ccc(C#N)c(F)c3)nc(N3CC[C@H](N)C3)n(C)c2=O)cc1F [Example 29, 4-[2-((3S)-3-amino-pyrrolidin-1-yl)-5-(3-fluoro-4-methoxy-phenyl)-1-methyl-6-oxo-1,6-dihydro-pyrimidin-4-yl]-2-fluoro-benzonitrile] | 0.1 to 1 |  |

| Compound | IC50 [1] [µM] | IC50 (read-out: THP-1 IC50 (μM)) [µM] |
| --- | --- | --- |
| COc1ccc(-c2c(-c3ccc(C#N)c(F)c3)nc(N3CCC[C@@H](N)C3)n(C)c2=O)cc1 [Example 30, 4-[2-((3R)-3-aminopiperidyl)-5-(4-methoxyphenyl)-1-methyl-6-oxohydro-pyrimidin-4-yl]-2-fluorobenzenecarbonitrile] | < 0.1 |  |
| COc1ccc(-c2c(-c3ccc(C#N)c(F)c3)nc(N3CCC[C@H](N)C3)n(C)c2=O)cc1 [Example 31, 4-[2-((3S)-3-amino-piperidin-1-yl)-5-(4-methoxy-phenyl)-1-methyl-6-oxo-1,6-dihydro-pyrimidin-4-yl]-2-fluoro-benzonitrile] | < 0.1 |  |
| COc1ccc(-c2c(-c3ccc(C#N)c(F)c3)nc(N3CCC(C)(N)CC3)n(C)c2=O)cc1F [Example 32, 4-[2-(4-amino-4-methyl-piperidin-1-yl)-5-(3-fluoro-4-methoxy-phenyl)-1-methyl-6-oxo-1,6-dihydro-pyrimidin-4-yl]-2-fluoro-benzonitrile] | < 0.1 |  |
| Cn1c(N2CCC(N)CC2)nc(-c2ccc(C#N)cc2)c(-c2ccc3c(cnn3C)c2)c1=O [Example 33, 4-[2-(4-aminopiperidyl)-1-methyl-5-(1-methyl(1H-indazol-5-yl))-6-oxohydropyrimidin-4-yl]benzenecarbonitrile] | < 0.1 |  |
| Cn1cc2cc(-c3c(-c4ccc(C#N)c(F)c4)nc(N4CCC(N)CC4)n(C)c3=O)ccc2n1 [Example 37, 4-[2-(4-aminopiperidyl)-1-methyl-5-(2-methyl(2H-indazol-5-yl))-6-oxohydropyrimidin-4-yl]-2-fruorobenzenecarbonitrile] | < 0.1 |  |
| COc1c(F)cc(-c2c(-c3ccc(C#N)cc3)nc(N3CCC(N)CC3)n(C)c2=O)cc1F [Example 38, 4-[2-(4-aminopiperidyl)-5-(3,5-difluoro-4-methoxyphenyl)-1-methyl-6-oxohydropyrimidin-4-yl]benzenecarbonitrile] | < 0.1 |  |
| CNC(=O)c1ccc(-c2c(-c3ccc(C#N)cc3)nc(N3CCC(N)CC3)n(C)c2=O)cc1F [Example 40, {4-[2-(4-aminopiperidyl)-6-(4-cyanophenyl)-3-methyl-4-oxo(3-hydropyrimidin-5-yl)]-2-fluorophenyl}-N-methylcarboxamide] | 0.1 to 1 |  |
| Cn1c(N2CCC(N)CC2)nc(-c2ccc(C#N)cc2)c(-c2ccc(C(N)=O)c(F)c2)c1=O [Example 41, 4-[2-(4-aminopiperidyl)-6-(4-cyanophenyl)-3-methyl-4-oxo(3-hydropyrimidin-5-yl)]-2-fluorobenzamide] | 0.1 to 1 |  |
| Cn1c(N2CCC(N)CC2)nc(-c2ccc(C#N)c(F)c2)c(-c2ccc3c(c2)CNC3=O)c1=O [Example 42, 4-[2-(4-amino-piperidin-1-yl)-1-methyl-6-oxo-5-(1-oxo-2,3-dihydro-1H-isoindol-5-yl)-1,6-dihydro-pyrimidin-4-yl]-2-fluoro-benzonitrile] | 0.1 to 1 |  |
| COc1ccc(-c2c(-c3ccc(C#N)cc3)nc(NC[C@H]3CCNC3)n(C)c2=O)cc1F [Example 44, 4-{5-(3-fluoro-4-methoxy-phenyl)-1-methyl-6-oxo-2-[(3S)-(pyrrolidin-3-ylmethyl)-amino]-1,6-dihydro-pyrimidin-4-yl}-benzonitrile] | 0.1 to 1 |  |
| COc1ccc(-c2c(-c3ccc(C#N)cc3)nc(NC[C@@H]3CCNC3)n(C)c2=O)cc1F [Example 45, 4-{5-(3-fluoro-4-methoxy-phenyl)-1-methyl-6-oxo-2-[(3R)-(pyrrolidin-3-ylmethyl)-amino]-1,6-dihydro-pyrimidin-4-yl}-benzonitrile] | 0.1 to 1 |  |
| COc1ccc(-c2c(-c3ccc(C#N)c(F)c3)nc(N3CCCNCC3)n(C)c2=O)cc1F [Example 46, 4-[2-[1,4]diazepan-1-yl-5-(3-fluoro-4-methoxy-phenyl)-1-methyl-6-oxo-1,6-dihydro-pyrimidin-4-yl]-2-fluoro-benzonitrile] | < 0.1 |  |
| COc1ccc(-c2c(-c3ccc(C#N)c(F)c3)nc(N3CCNCC3)n(C)c2=O)cc1F [Example 47, 2-fluoro-4-[5-(3-fluoro-4-methoxy-phenyl)-1-methyl-6-oxo-2-piperazin-1-yl-1,6-dihydro-pyrimidin-4-yl]-benzonitrile] | 0.1 to 1 |  |
| COc1ccc(-c2c(-c3ccc(C#N)cc3)nc(NC3CCNCC3)n(C)c2=O)cc1F [Example 48, 4-[5-(3-fluoro-4-methoxy-phenyl)-1-methyl-6-oxo-2-(piperidin-4-ylamino)-1,6-dihydro-pyrimidin-4-yl]-benzonitrile] | 0.1 to 1 |  |
| CN(C)c1ncc(-c2c(-c3ccc(C#N)c(F)c3)nc(N3CCC(N)CC3)n(C)c2=O)cn1 [Example 49, 4-[2-(4-amino-piperidin-1-yl)-2′-dimethylamino-1-methyl-6-oxo-1,6-dihydro-[5,5′]bipyrimidinyl-4-yl]-2-fluoro-benzonitrile] | < 0.1 |  |
| CNC(=O)c1ccc(-c2c(-c3ccc(C#N)c(F)c3)nc(N3CCC(N)CC3)n(C)c2=O)cn1 [Example 50, 5-[2-(4-amino-piperidin-1-yl)-4-(4-cyano-3-fluoro-phenyl)-1-methyl-6-oxo-1,6-dihydro-pyrimidin-5-yl]-pyridine-2-carboxylic acid methylamide] | < 0.1 |  |
